Laboratory results reported in patent publication US20140323504A1, “Pyrazolo[4,3-c]Pyridine Derivatives As Kinase Inhibitors” (Cellzome Limited, priority 2011, published 2014).

Key:
[1] = target: T1, ITK (Homo sapiens, UniProt Q08881); assay: Radiometric protein kinase assay (33PanQinase, ProQinase), ITK; assay type: biochemical; conditions: ATP at apparent Km (1.0 μM); for IC50: read-out: ITK enzyme assay IC50
T1 construct: purchased ProQinase GmbH, Freiburg, Germany
T1 sequence (Q08881 1-620): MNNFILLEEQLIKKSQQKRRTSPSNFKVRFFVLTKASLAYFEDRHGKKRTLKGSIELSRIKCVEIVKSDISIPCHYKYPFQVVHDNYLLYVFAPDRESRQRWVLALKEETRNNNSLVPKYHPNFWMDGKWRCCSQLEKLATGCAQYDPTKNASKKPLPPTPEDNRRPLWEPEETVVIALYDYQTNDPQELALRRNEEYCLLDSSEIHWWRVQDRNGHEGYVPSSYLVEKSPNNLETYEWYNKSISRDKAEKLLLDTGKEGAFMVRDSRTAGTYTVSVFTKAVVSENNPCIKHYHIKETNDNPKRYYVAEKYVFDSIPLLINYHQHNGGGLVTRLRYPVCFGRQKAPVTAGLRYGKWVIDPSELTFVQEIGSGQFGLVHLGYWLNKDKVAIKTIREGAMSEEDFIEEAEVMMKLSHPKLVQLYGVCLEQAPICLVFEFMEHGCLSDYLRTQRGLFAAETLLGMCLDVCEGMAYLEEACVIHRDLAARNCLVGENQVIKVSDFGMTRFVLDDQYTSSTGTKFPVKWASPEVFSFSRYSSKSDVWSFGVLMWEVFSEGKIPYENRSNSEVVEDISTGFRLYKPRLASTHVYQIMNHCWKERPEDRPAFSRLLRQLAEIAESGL
Procedure: (§1) A radiometric protein kinase assay (^33PanQinase® Activity Assay; ProQinase GmbH, Freiburg, Germany) was used for measuring the kinase activity of the protein kinases BLK, BTK, ITK and JAK3. All kinase assays were performed in 96-well FlashPlates™ from PerkinElmer (Boston, Mass., USA) in a 50 μl reaction volume. The reaction cocktail was pipetted in four steps in the following order: • 20 μl of assay buffer (standard buffer) • 5 μl of ATP solution (in H2O) • 5 μl of test compound (in 10% DMSO) • 10 μl of substrate/10 μl of enzyme solution (premixed)
(§2) The reaction cocktails were incubated at 30° C. for 60 minutes. The reaction was stopped with 50 μl of 2% (v/v) H3PO4, plates were aspirated and washed two times with 200 μl 0.9% (w/v) NaCl. Incorporation of ^33Pi was determined with a microplate scintillation counter (Microbeta, Wallac). All assays were performed with a BeckmanCoulter/SAGIAN™ Core System.

[2] = target: T2, JAK3 (Homo sapiens, UniProt P52333); assay: Radiometric protein kinase assay (33PanQinase, ProQinase), JAK3; assay type: biochemical; set-up: endogenous in cells; host or cells: mixed Molt4/Ramos cell lysate (1:2); conditions: read-out: JAK3 enzyme assay IC50
T2 sequence (P52333 1-1124): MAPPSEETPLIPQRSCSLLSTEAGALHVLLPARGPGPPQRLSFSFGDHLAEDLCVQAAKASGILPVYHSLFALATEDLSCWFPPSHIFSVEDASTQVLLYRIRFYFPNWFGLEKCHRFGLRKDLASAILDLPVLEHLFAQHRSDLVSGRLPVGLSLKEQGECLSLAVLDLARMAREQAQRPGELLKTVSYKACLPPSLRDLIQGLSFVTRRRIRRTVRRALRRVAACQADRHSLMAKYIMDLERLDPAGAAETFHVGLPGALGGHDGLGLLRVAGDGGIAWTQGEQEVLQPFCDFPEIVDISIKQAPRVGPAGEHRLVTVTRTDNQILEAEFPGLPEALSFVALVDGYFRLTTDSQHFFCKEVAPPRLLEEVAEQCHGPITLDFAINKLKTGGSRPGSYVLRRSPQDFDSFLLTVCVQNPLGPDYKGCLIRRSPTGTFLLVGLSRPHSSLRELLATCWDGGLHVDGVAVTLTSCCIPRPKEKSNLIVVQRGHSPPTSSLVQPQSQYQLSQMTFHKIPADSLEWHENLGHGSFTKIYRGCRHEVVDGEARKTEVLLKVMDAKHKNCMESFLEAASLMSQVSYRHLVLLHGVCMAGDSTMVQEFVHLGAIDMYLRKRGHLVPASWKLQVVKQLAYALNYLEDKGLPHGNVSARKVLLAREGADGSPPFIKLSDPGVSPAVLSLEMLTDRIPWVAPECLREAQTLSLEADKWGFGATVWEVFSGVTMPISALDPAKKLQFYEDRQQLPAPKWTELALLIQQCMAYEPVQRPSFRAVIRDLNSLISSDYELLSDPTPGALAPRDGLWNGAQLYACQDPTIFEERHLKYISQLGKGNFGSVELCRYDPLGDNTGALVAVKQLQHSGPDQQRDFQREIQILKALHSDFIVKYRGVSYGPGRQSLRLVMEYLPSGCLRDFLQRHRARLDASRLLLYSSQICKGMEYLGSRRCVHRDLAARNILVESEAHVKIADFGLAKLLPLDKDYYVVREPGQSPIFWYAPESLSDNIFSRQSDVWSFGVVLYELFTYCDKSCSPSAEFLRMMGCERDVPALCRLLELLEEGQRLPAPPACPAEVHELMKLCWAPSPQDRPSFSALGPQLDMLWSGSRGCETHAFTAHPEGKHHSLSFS
Procedure: as §1, §2

Row | IC50 [1] [nM] | IC50 [2] [nM] | ITK enzyme assay IC50 [1] | SMILES
1 | 230 | 3 |  | C=CC(=O)Nc1cccc(Cn2ncc3cnc(Nc4cnn(C)c4)nc32)c1 [Example 1, N-(3-((6-((1-Methyl-1H-pyrazol-4-yl)amino)-1H-pyrazolo[3,4-d]pyrimidin-1-yl)methyl)phenyl)acrylamide]
2 | 3 | 4 |  | C#CC(=O)Nc1cccc(Cn2ncc3cnc(Nc4cnn(C)c4)nc32)c1 [Example 3, N-(3-((6-((1-Methyl-1H-pyrazol-4-yl)amino)-1H-pyrazolo[3,4-d]pyrimidin-1-yl)methyl)phenyl)propiolamide]
3 |  | 290 | inactive | CC(=O)Nc1cccc(Cn2ncc3cnc(Nc4cnn(C)c4)nc32)c1 [compound 2, N-(3-((6-((1-methyl-1H-pyrazol-4-yl)amino)-1H-pyrazolo[3,4-d]pyrimidin-1-yl)methyl)phenyl)acetamide, reference compound]
4 | 80 | 7 |  | C=CS(=O)(=O)Nc1cccc(Cn2ncc3cnc(Nc4cnn(C)c4)nc32)c1 [Example 4, N-(3-((6-((1-Methyl-1H-pyrazol-4-yl)amino)-1H-pyrazolo[3,4-d]pyrimidin-1-yl)methyl)phenyl)ethenesulfonamide]
